# From patent US7125878B2, “Substituted pyrroline kinase inhibitors” (Janssen Pharmaceutica, priority 2002, dated 2006)
# Values joined by “and” are separate entries in the source; they are usually repeats but may differ in a detail not shown here. Equal values may be shown once.
# Biological target: T1, recombinant rabbit GSK-3β protein (Oryctolagus cuniculus, UniProt G1T8E2)
# T1 construct: purchased New England Biolabs
# Test: Glycogen Synthase Kinase-3 Assay (33P phosphorylation of PPI-2)
# Type: biochemical
# Conditions: @100 nM
# Procedure: Glycogen Synthase Kinase-3 Assay
# Compounds were tested for the ability to inhibit recombinant rabbit GSK-3β protein using the following protocol. The test compound was added to a reaction mixture containing Protein Phosphatase Inhibitor-2 (PPI-2) (Calbiochem) (45 ng), rabbit GSK-3β protein (New England Biolabs) (0.75 units) and ^33P-ATP (1 μCi) in 50 mM Tris-HCl (pH 8.0), 10 mM MgCl2, 0.1% BSA, 1 mM DTT and 100 μM Sodium Vanadate. The mixture was reacted for 90 minutes at 30° C. to allow phosphorylation of the PPI-2 protein and then the protein in the reaction was precipitated using 10% TCA. The precipitated protein was collected on filter plates (MultiScreen-DV/Millipore), which were subsequently washed. Finally, the radioactivity was quantified using a TopCount Scintillation Counter (Packard). […] Staurosporine or Valproate, known inhibitors of GSK-3β, were used as a positive control for screening.
# T1 sequence (G1T8E2 1-432): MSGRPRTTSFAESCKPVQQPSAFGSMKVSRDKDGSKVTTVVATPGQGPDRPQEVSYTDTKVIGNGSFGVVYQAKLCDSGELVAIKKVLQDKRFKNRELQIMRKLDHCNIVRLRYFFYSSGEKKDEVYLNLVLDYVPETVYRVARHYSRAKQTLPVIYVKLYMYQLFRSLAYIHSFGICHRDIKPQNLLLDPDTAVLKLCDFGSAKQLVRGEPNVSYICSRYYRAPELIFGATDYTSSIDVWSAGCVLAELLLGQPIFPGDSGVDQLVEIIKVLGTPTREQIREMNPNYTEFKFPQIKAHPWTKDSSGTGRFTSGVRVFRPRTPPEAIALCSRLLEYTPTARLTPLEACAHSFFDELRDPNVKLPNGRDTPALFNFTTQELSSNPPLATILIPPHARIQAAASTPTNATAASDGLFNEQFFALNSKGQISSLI
row,inhibition at 0.1 µM [%],Structure (SMILES)
1,56,"O=C1NC(=O)C(c2cn(CCCO)c3ncccc23)=C1c1n[nH]c2ccccc12 [Cpd 6, 3-[1-(3-hydroxypropyl)-1H-pyrrolo[2,3-b]pyridin-3-yl]-4-(1H-indazol-3-yl)-1H-pyrrole-2,5-dione]"

# Same assay, conditions: two numbers = data obtained on different days
row,IC50,Structure (SMILES)
1,36 nM,"O=C1NC(=O)C(c2cn(CCCO)c3ncccc23)=C1c1ncc(C(F)(F)F)cc1Cl [Cpd 13, 3-[3-chloro-5-(trifluoromethyl)-2-pyridinyl]-4-[1-(3-hydroxypropyl)-1H-pyrrolo[2,3-b]pyridin-3-yl]-1H-pyrrole-2,5-dione]"
2,77 nM and 102 nM,"N#CCCCn1cc(C2=C(c3cnccn3)C(=O)NC2=O)c2cccnc21 [Cpd 63, 4-[3-(2,5-Dioxo-4-pyrazin-2-yl-2,5-dihydro-1H-pyrrol-3-yl)-pyrrolo[2,3-b]pyridin-1-yl]-butyronitrile]"
3,56 nM and 58 nM,"O=C1NC(=O)C(c2cn(CCCO)c3ncccc23)=C1c1cnc(-c2ccccc2)o1 [Cpd 49, 3-[1-(3-Hydroxy-propyl)-1H-pyrrolo[2,3-b]pyridin-3-yl]-4-(2-phenyl-oxazol-5-yl)-pyrrole-2,5-dione]"
4,77 nM and 128 nM,"Cn1ccc(C2=C(c3cn(CCCC#N)c4ncccc34)C(=O)NC2=O)n1 [Cpd 64, 4-{3-[4-(1-Methyl-1H-pyrazol-3-yl)-2,5-dioxo-2,5-dihydro-1H-pyrrol-3-yl]-pyrrolo[2,3-b]pyridin-1-yl}-butyronitrile]"
5,4 nM,"O=C1NC(=O)C(c2cn(CCCO)c3ncccc23)=C1c1ccccc1C(F)(F)F [Cpd 11, 3-[1-(3-hydroxypropyl)-1H-pyrrolo[2,3-b]pyridin-3-yl]-4-[2-(trifluoromethyl)phenyl]-1H-pyrrole-2,5-dione]"
6,100 nM,"Cn1ccc(C2=C(c3cn(CCC#N)c4ncccc34)C(=O)NC2=O)n1 [Cpd 69, 3-{3-[4-(1-Methyl-1H-pyrazol-3-yl)-2,5-dioxo-2,5-dihydro-1H-pyrrol-3-yl]-pyrrolo[2,3-b]pyridin-1-yl}-propionitrile]"
7,480 nM and 660 nM,"Cn1nccc1C1=C(c2cn(CCCO)c3ncccc23)C(=O)NC1=O [Cpd 66, 3-[1-(3-Hydroxy-propyl)-1H-pyrrolo[2,3-b]pyridin-3-yl]-4-(2-methyl-2H-pyrazol-3-yl)-pyrrole-2,5-dione]"
8,158 nM and 51 nM,"O=C1NC(=O)C(c2cn(CCCO)c3ncccc23)=C1C1=CCCCO1 [Cpd 23, 3-(3,4-dihydro-2H-pyran-6-yl)-4-[1-(3-hydroxypropyl)-1H-pyrrolo[2,3-b]pyridin-3-yl]-1H-pyrrole-2,5-dione]"
9,123 nM and 106 nM,"O=C1NC(=O)C(c2cccc3cccnc23)=C1c1cn(CCCO)c2ncccc12 [Cpd 42, 3-[1-(3-Hydroxy-propyl)-1H-pyrrolo[2,3-b]pyridin-3-yl]-4-quinolin-8-yl-pyrrole-2,5-dione]"
10,70 nM and 120 nM,"Cn1ccc(C2=C(c3cn(CCCO)c4ncccc34)C(=O)NC2=O)n1 [Cpd 26, 3-[1-(3-hydroxypropyl)-1H-pyrrolo[2,3-b]pyridin-3-yl]-4-(1-methyl-1H-pyrazol-3-yl)-1H-pyrrole-2,5-dione]"
11,67 nM and 95 nM,"O=C1NC(=O)C(c2cn(CCCO)c3ncccc23)=C1c1ccc(O)c(O)c1 [Cpd 32, 3-(3,4-dihydroxyphenyl)-4-[1-(3-hydroxypropyl)-1H-pyrrolo[2,3-b]pyridin-3-yl]-1H-pyrrole-2,5-dione]"
12,36 nM and 35 nM,"COc1ncc(C2=C(c3cn(CCCC#N)c4ncccc34)C(=O)NC2=O)c(OC)n1 [Cpd 62, 4-{3-[4-(2,4-Dimethoxy-pyrimidin-5-yl)-2,5-dioxo-2,5-dihydro-1H-pyrrol-3-yl]-pyrrolo[2,3-b]pyridin-1-yl}-butyronitrile]"
13,11 nM,"COc1cccc(C2=C(c3cn(CCCO)c4ncccc34)C(=O)NC2=O)c1 [Cpd 9, 3-[1-(3-hydroxypropyl)-1H-pyrrolo[2,3-b]pyridin-3-yl]-4-(3-methoxyphenyl)-1H-pyrrole-2,5-dione]"
14,6 nM,"O=C1NC(=O)C(c2cn(CCCO)c3ncccc23)=C1c1cc(Cl)sc1Cl [Cpd 15, 3-(2,5-dichloro-3-thienyl)-4-[1-(3-hydroxypropyl)-1H-pyrrolo[2,3-b]pyridin-3-yl]-1H-pyrrole-2,5-dione]"
